Laboratory results taken from patent US4456593A, “Ristocetin .psi.-aglycone as an antibacterial agent” (Abbott Laboratories, priority 1982, dated 1984).
Values joined by “and” are separate entries in the source; they are usually repeats but may differ in a detail not shown here. Equal entries are not always repeated.

Key:
S. aureus = experiment: Anti-infective Test - Cure of Acute Mouse Bacterial Infection (mouse protection), S. aureus; format: in vivo; details: for CD50 (curative dose50, total dose required to cure half the animals): dosed 1 and 5 hours post-infection, 95 percent confidence limits in brackets
Description: (§1) Anti-infective Test--Cure of Acute Mouse Bacterial Infection
(§2) To determine the ability of potential anti-microbial agents to cure mice of an otherwise lethal infection.
Bacterial strains used in this test have been previously tested and, if necessary, adapted to mice and are maintained on brain heart infusion (BHI) agar slants at 4° C. Tubes of BHI broth are inoculated from the slants and incubated for 18 hours at 37° C. Serial ten-fold dilutions of this culture are made in BHI broth. The bacterial suspensions used to infect mice are obtained by making the final ten-fold dilution in 5 percent aqueous hog gastric mucin (American Laboratories Incorporated). Mice are infected by an intraperitoneal injection of 0.75 ml. of the resulting suspension. The dilution of test organism selected (standard inoculum) is based on prior experience with that organism and is usually 10-100-fold more concentrated than the LD50 dilution, i.e., that concentration which when administered as described above causes 50 percent mortalities.
The antimicrobial test substance is dissolved at the desired concentration in a suitable vehicle (sterile water, unless otherwise specified) and four serial, two-fold dilutions of this solution are made with the vehicle.
In dosing the animals, all mice are considered to weigh 20 grams. The volume administered is always 0.5 ml. at 1 and 5 hours post-infection (total of 1.0 ml.), with half of the total dose given at each time.
Administration of Test Substances:
The test substance may be administered by any of the following routes:
2. Subcutaneously, at the nape of the neck,
3. Intramuscularly in the thigh,
4. Intravenously in the tail vein.
Female Swiss albino mice weighing 18 to 20 grams are divided randomly into groups of ten animals and housed one group to a cage. Food (standard mouse pellets) and water are supplied ad lib throughout the test. All animals are sacrificed at the conclusion of the test.
Group T0 is neither infected nor treated, but is observed for seven days. If more than one mortality occurs in this group, the data will be reviewed to determine is there is cause to invalidate the test.
Groups T1 through T4 are used to monitor the strength of the infection actually used in this experiment. These groups are infected but untreated. Group T1 is infected with the standard inoculum, and groups T2 through T4 are infected with successive ten-fold dilutions of the organism prepared such that only the final dilution in each case is made with 5 percent aqueous hog gastric mucin. These groups are observed for seven days, mortalities are recorded and used to determine the number of challenge LD50's (within ten-fold limits) present in the standard inoculum used to infect medicated groups of animals.
Groups T5 through T9 are infected intraperitoneally with the standard inoculum. Each group is treated with one of the two-fold dilutions of the test substance by a specified route of administration at 1 hour and 5 hours post infection. The animals are observed for seven days and mortalities are recorded.
Further sets of five groups of animals are infected and treated in the same manner as groups T5 through T9 for each additional test substance studied.
CD50's (the total dose, in mg./kg., required to cure half the animals) are calculated by standard statistical methods and are reported with 95 percent confidence limits where these are obtainable or annotated with PS (poor slope) where they are not.
This test is performed in primary and secondary variations. […]

E. coli (J) = experiment: Anti-infective Test - Cure of Acute Mouse Bacterial Infection (mouse protection), E. coli; format: in vivo; details: E. coli (J) intraperitoneal infection in female Swiss albino mice; route I.V.; dosed 1 and 5 hours post-infection; observed seven days
Description: as §1, §2
Bacterial strains used in this test have been previously tested and, if necessary, adapted to mice and are maintained on brain heart infusion (BHI) agar slants at 4° C. Tubes of BHI broth are inoculated from the slants and incubated for 18 hours at 37° C. Serial ten-fold dilutions of this culture are made in BHI broth. The bacterial suspensions used to infect mice are obtained by making the final ten-fold dilution in 5 percent aqueous hog gastric mucin (American Laboratories Incorporated). […]
Groups T1 through T4 are used to monitor the strength of the infection actually used in this experiment. […] These groups are observed for seven days, mortalities are recorded and used to determine the number of challenge LD50's (within ten-fold limits) present in the standard inoculum used to infect medicated groups of animals.
Groups T5 through T9 are infected intraperitoneally with the standard inoculum. […] The animals are observed for seven days and mortalities are recorded. […]
CD50's (the total dose, in mg./kg., required to cure half the animals) are calculated by standard statistical methods and are reported with 95 percent confidence limits where these are obtainable or annotated with PS (poor slope) where they are not. […]

[1] = S. aureus (S) intraperitoneal infection in female Swiss albino mice, route I.V., observed seven days

Row | Compound | Percent Surviving Mice With Varying Drug Dose (S. aureus; S. aureus (S) infection in mice, route I.V., dose of this cell not printed as text) | CD50 (curative dose50, total dose required to cure half the animals) (S. aureus; S. aureus (SC) intraperitoneal infection in female Swiss albino mice, route cell is a drawing (not readable)) | CD50 (curative dose50, total dose required to cure half the animals) (E. coli (J)) | CD50 (curative dose50, total dose required to cure half the animals) (S. aureus; [1]) | CD50 (curative dose50, total dose required to cure half the animals) (S. aureus; S. aureus (S) intraperitoneal infection in female Swiss albino mice, route S.C., observed seven days)
1 | COC(=O)[C@H]1NC(=O)[C@H]2NC(=O)[C@H](NC(=O)[C@@H]3NC(=O)[C@H]4NC(=O)[C@H](NC(=O)[C@H](N)c5ccc(O)c(c5)Oc5cc4cc(O)c5C)[C@H](O)c4ccc(cc4)Oc4cc3cc(c4O)Oc3ccc(cc3)[C@H]2O)c2ccc(O)c(c2)-c2c(O)cc(O)cc21 [Compound 2, Ristocetin aglycone] | 90% | 2.7 (1.8-4.1) mg./kg. | 50 mg/kg |  | 
2 | O--demethylristocetin aglycone [Compound 3] |  |  |  | 9.3 (5.9-17.3) mg./kg. | 
3 | Ristocetin [Compound 1] |  |  | 50 mg/kg | 4.1 mg./kg. and 6.6 mg./kg. and 5.6 (4.2-7.5) mg./kg. and 6 mg./kg. | 3.7 (2.4-5.7) mg./kg.
